{"source": "patent US20140275078A1", "about": "“COMPOSITIONS AND METHODS FOR TREATING CANCER USING PI3KB INHIBITOR AND MAPK PATHWAY INHIBITOR, INCLUDING MEK AND RAF INHIBITORS” (SANOFI, priority 2011, published 2014)", "key": {"[1]": {"tested_on": "human melanoma cell line WM-266-4", "assay": "Cell proliferation (CelltiterGlo, ray design) in WM-266-4", "assay_type": "cell-based", "conditions": "single agent, 96 hours, 4-parameter logistic model", "description": "(§1) UACC-62 cells were plated at 2500 cells/well in 96-well plates in appropriate culture medium and incubated 6 hours at 37° C., 5% CO2. […] Cell growth was evaluated by measuring intracellular ATP using CelltiterGlo® reagent (Promega) according to the manufacturer's protocol. Briefly, Cell Titer Glo was added to each plate, incubated for 1 hour then luminescent signal was read on the MicroBeta Luminescent plate reader. All plates were run in duplicate. All assays were run at least in duplicate.\n(§2) Inhibition of cell growth was estimated after treatment with compound or combination of compounds for four days and comparing the signal to cells treated with vehicle (DMSO).\nGrowth inhibition percentage (GI %) was calculated according to the following equation: GI %=100*(1−((X−BG)/(TC−BG))\nA global non linear mixed model using NLMIXED procedure of SAS V9.2 was applied to fit simultaneously the concentration-responses curves for each ray. The combination index\nof each ray i and its 95% confidence interval was then estimated using the following equation: […]\nwhere IC40A and IC40B are the concentrations of compound A and compound B necessary to obtain 40% of inhibition for each compound alone and CA and CB are the concentrations of compound A and compound B in the mixture necessary to obtain 40% of inhibition.\nThe human melanoma WM-266-4 cell line was purchased at ATCC (Ref number CRL-1676 Batch 3272826). The WM-266-4 cells were cultured in RPMI1640 medium supplemented with 10% FBS and 2 mM L-Glutamine.\nMaterials and Methods are the same described in example 1.\nThe human melanoma WM-266-4 cell line was purchased at ATCC (Ref number CRL-1676 Batch 3272826). The WM-266.4 cells were cultured in RPMI1640 medium supplemented with 10% FBS and 2 mM L-Glutamine."}, "[2]": {"assay": "Chemical stability of dosing stock solution", "conditions": "oral dosing formulation of each compound; in the dark at RT"}, "[3]": {"tested_on": "human melanoma tumors UACC-62", "assay": "Antitumor activity against subcutaneous UACC-62 tumors in SCID female mice", "conditions": "for tolerability (body weight loss): single agents or combination"}, "[4]": {"tested_on": "human melanoma tumors WM-266.4", "conditions": "for tolerability (body weight loss): Cpd (2a) 25 and 10 mg/kg qd, Cpd (2b) 100 and 50 mg/kg qd, single agents or combination"}, "[5]": {"tested_on": "human primary colon tumors CR-IGR-014P", "conditions": "Ex. 8, Cpd (I) 150 mg/kg bid"}, "[6]": {"tested_on": "human melanoma cell line UACC-62", "assay": "Cell proliferation (CelltiterGlo, ray design) in UACC-62", "assay_type": "cell-based", "conditions": "single agent, 96 hours, 4-parameter logistic model", "description": "The human melanoma UACC-62 cell line was purchased at NCI (Batch 0503000). The UACC-62 cells were cultured in RPMI1640 medium supplemented with 10% FBS and 2 mM L-Glutamine.\nThey were diluted in cascade, in DMSO and then diluted 50-fold in culture medium containing 10% serum before being added onto cells with a 20-fold dilution factor. The final concentrations tested were defined by Ray design described in Table 1. The DMSO concentration was 0.1% in controls and in all treated wells.\nas §1, §2\nGrowth inhibition percentage (GI %) was calculated according to the following equation: GI %=100*(1−((X−BG)/(TC−BG)) […]"}, "[7]": {"conditions": "Ex. 5, PO d11-22, Cpd (I) 150 mg/kg bid, Cpd (2a) 10 mg/kg qd, alone or combined"}, "[8]": {"conditions": "Ex. 7, PO d21-31, Cpd (I) 150 mg/kg bid, Cpd (2a) 10 mg/kg qd, alone or combined"}, "[9]": {"conditions": "PO d20-36, Cpd (2a) 10 mg/kg qd, alone or combined"}}, "note": "Several values for one entry are separate records, joined by “and”; a condition that tells them apart may be missing. Identical values can stand only once. Like-named read-outs stand apart in the source and are kept apart here."}
{"smiles": "Cn1cnc2c(F)c(Nc3ccc(Br)cc3Cl)c(C(=O)NOCCO)cc21", "note": "[Compound (2a), 1H-Benzimidazole-6-carboxamide, 5-[(4-bromo-2-chlorophenyl)amino]-4-fluoro-N-(2-hydroxyethoxy)-1-methyl]", "values": [{"measurement": "Absolute IC40", "setting": "[1]; example 3", "value": 33, "unit": "nM"}, {"measurement": "stock solution chemically stable", "setting": "[2]", "value": 7, "unit": "days"}, {"measurement": "tolerability (body weight loss)", "setting": "[3]; Ex. 5, Cpd (I) 150 mg/kg bid, Cpd (2a) 25 and 10 mg/kg qd", "value": "well tolerated inducing minimal bwl"}, {"measurement": "Average body weight change in % per mouse at nadir", "setting": "[3]; [7]", "value": "−4.3", "unit": "%"}, {"measurement": "Drug death (Day of death)", "setting": "[3]; [7]", "value": "0/7"}, {"measurement": "day of nadir", "setting": "[3]; [7]", "value": 21, "unit": "days"}, {"measurement": "ΔT/ΔC % (day 22)", "setting": "[3]; [7]", "value": 35, "unit": "%"}, {"measurement": "tolerability (body weight loss)", "setting": "[4]; Ex. 7, Cpd (I) 150 mg/kg bid", "value": "induced a higher bwl as compared to the control"}, {"measurement": "Average body weight change in % per mouse at nadir", "setting": "[4]; [8]", "value": "−10.5", "unit": "%"}, {"measurement": "Drug death (Day of death)", "setting": "[4]; [8]", "value": "0/7"}, {"measurement": "day of nadir", "setting": "[4]; [8]", "value": 31, "unit": "days"}, {"measurement": "ΔT/ΔC % (day 31)", "setting": "[4]; [8]", "value": 36, "unit": "%"}, {"measurement": "tolerability (body weight loss)", "setting": "[5]; Cpd (2a) 25 and 10 mg/kg qd, single agents or combination", "value": "well tolerated inducing minimal bwl"}, {"measurement": "Average body weight change in % per mouse at nadir", "setting": "[5]; [9]", "value": "−4.2", "unit": "%"}, {"measurement": "Drug death (Day of death)", "setting": "[5]; [9]", "value": "0/7"}, {"measurement": "day of nadir", "setting": "[5]; [9]", "value": 27, "unit": "days"}, {"measurement": "ΔT/ΔC % (day 36)", "setting": "[5]; [9]", "value": 84, "unit": "%"}, {"measurement": "Absolute IC40", "setting": "[6]; example 1", "value": 27, "unit": "nM"}]}
{"smiles": "CCCS(=O)(=O)Nc1ccc(F)c(C(=O)c2c[nH]c3ncc(-c4ccc(Cl)cc4)cc23)c1F", "note": "[Compound (2b), 1-Propanesulfonamide, N-[3-[[5-(4-chlorophenyl)-1H-pyrrolo[2,3-b]pyridin-3-yl]carbonyl]-2,4-difluorophenyl]]", "values": [{"measurement": "Absolute IC40", "setting": "[1]; example 4", "value": 35, "unit": "nM"}, {"measurement": "stock solution chemically stable", "setting": "[2]", "value": 7, "unit": "days"}, {"measurement": "Tumor volume changes from baseline: Median (nMad)", "setting": "[3]; Ex. 6, Cpd (I) 151.5 mg/kg bid, Cpd (2b) 50 mg/kg qd, alone or combined, Day 11", "value": "62 (16.3)"}, {"measurement": "Tumor volume changes from baseline: Median (nMad)", "setting": "[3]; Ex. 6, Cpd (I) 151.5 mg/kg bid, Cpd (2b) 50 mg/kg qd, alone or combined, Day 13", "value": "157 (132)"}, {"measurement": "Tumor volume changes from baseline: Median (nMad)", "setting": "[3]; Ex. 6, Cpd (I) 151.5 mg/kg bid, Cpd (2b) 50 mg/kg qd, alone or combined, Day 15", "value": "240 (132)^"}, {"measurement": "Tumor volume changes from baseline: Median (nMad)", "setting": "[3]; Ex. 6, Cpd (I) 151.5 mg/kg bid, Cpd (2b) 50 mg/kg qd, alone or combined, Global", "value": "154 (136.4)"}, {"measurement": "Tumor volume changes from baseline: Median (nMad)", "setting": "[3]; Ex. 6, Cpd (I) 151.5 mg/kg bid, Cpd (2b) 100 mg/kg qd, alone or combined, Day 11", "value": "54 (60.8)"}, {"measurement": "Tumor volume changes from baseline: Median (nMad)", "setting": "[3]; Ex. 6, Cpd (I) 151.5 mg/kg bid, Cpd (2b) 100 mg/kg qd, alone or combined, Day 13", "value": "126 (74.1)"}, {"measurement": "Tumor volume changes from baseline: Median (nMad)", "setting": "[3]; Ex. 6, Cpd (I) 151.5 mg/kg bid, Cpd (2b) 100 mg/kg qd, alone or combined, Day 15", "value": "152 (161.6)"}, {"measurement": "Tumor volume changes from baseline: Median (nMad)", "setting": "[3]; Ex. 6, Cpd (I) 151.5 mg/kg bid, Cpd (2b) 100 mg/kg qd, alone or combined, Global", "value": "98 (89)^"}, {"measurement": "tolerability (body weight loss)", "setting": "[3]; Ex. 6, Cpd (I) 151.5 mg/kg bid, Cpd (2b) 100 and 50 mg/kg qd", "value": "well tolerated inducing minimal bwl"}, {"measurement": "ΔT/ΔC % (day 15)", "setting": "[3]; Ex. 6, PO d8-15, Cpd (I) 151.5 mg/kg bid, Cpd (2b) 100 mg/kg qd, alone or combined", "value": 20, "unit": "%"}, {"measurement": "Average body weight change in % per mouse at nadir", "setting": "[3]; mouse, in vivo", "value": "−3.7 (13) % and −1.7 (15) %"}, {"measurement": "tolerability (body weight loss)", "setting": "[4]; Ex. 7, Cpd (I) 150 mg/kg bid", "value": "well tolerated"}, {"measurement": "Tumor volume changes from baseline: Median (nMad)", "setting": "[4]; Ex. 7, Cpd (I) 150 mg/kg bid, Cpd (2b) 50 mg/kg qd, alone or combined, Day 24", "value": "116 (11.9)"}, {"measurement": "Tumor volume changes from baseline: Median (nMad)", "setting": "[4]; Ex. 7, Cpd (I) 150 mg/kg bid, Cpd (2b) 50 mg/kg qd, alone or combined, Day 27", "value": "254 (118.6)"}, {"measurement": "Tumor volume changes from baseline: Median (nMad)", "setting": "[4]; Ex. 7, Cpd (I) 150 mg/kg bid, Cpd (2b) 50 mg/kg qd, alone or combined, Day 29", "value": "322 (94.9)"}, {"measurement": "Tumor volume changes from baseline: Median (nMad)", "setting": "[4]; Ex. 7, Cpd (I) 150 mg/kg bid, Cpd (2b) 50 mg/kg qd, alone or combined, Day 31", "value": "442 (60.8)"}, {"measurement": "Tumor volume changes from baseline: Median (nMad)", "setting": "[4]; Ex. 7, Cpd (I) 150 mg/kg bid, Cpd (2b) 50 mg/kg qd, alone or combined, Global", "value": "274 (228.3)"}, {"measurement": "Tumor volume changes from baseline: Median (nMad)", "setting": "[4]; Ex. 7, Cpd (I) 150 mg/kg bid, Cpd (2b) 100 mg/kg qd, alone or combined, Day 24", "value": "36 (26.7)"}, {"measurement": "Tumor volume changes from baseline: Median (nMad)", "setting": "[4]; Ex. 7, Cpd (I) 150 mg/kg bid, Cpd (2b) 100 mg/kg qd, alone or combined, Day 27", "value": "171 (40)^"}, {"measurement": "Tumor volume changes from baseline: Median (nMad)", "setting": "[4]; Ex. 7, Cpd (I) 150 mg/kg bid, Cpd (2b) 100 mg/kg qd, alone or combined, Day 29", "value": "226 (86)^"}, {"measurement": "Tumor volume changes from baseline: Median (nMad)", "setting": "[4]; Ex. 7, Cpd (I) 150 mg/kg bid, Cpd (2b) 100 mg/kg qd, alone or combined, Day 31", "value": "441 (96.4)"}, {"measurement": "Tumor volume changes from baseline: Median (nMad)", "setting": "[4]; Ex. 7, Cpd (I) 150 mg/kg bid, Cpd (2b) 100 mg/kg qd, alone or combined, Global", "value": "193.5 (200.2)^"}, {"measurement": "ΔT/ΔC % (day 31)", "setting": "[4]; Ex. 7, PO d21-31, Cpd (I) 150 mg/kg bid, Cpd (2b) 50 mg/kg qd, alone or combined", "value": "> 40", "unit": "%"}, {"measurement": "ΔT/ΔC % (day 31)", "setting": "[4]; Ex. 7, PO d21-31, Cpd (I) 150 mg/kg bid, Cpd (2b) 50 mg/kg qd, alone or combined, listed as Cpd. 2b", "value": 59, "unit": "%"}, {"measurement": "ΔT/ΔC % (day 31)", "setting": "[4]; Ex. 7, PO d21-31, Cpd (I) 150 mg/kg bid, Cpd (2b) 100 mg/kg qd, alone or combined", "value": "> 40", "unit": "%"}, {"measurement": "ΔT/ΔC % (day 31)", "setting": "[4]; Ex. 7, PO d21-31, Cpd (I) 150 mg/kg bid, Cpd (2b) 100 mg/kg qd, alone or combined, listed as Cpd. 2b", "value": 59, "unit": "%"}, {"measurement": "Average body weight change in % per mouse at nadir", "setting": "[4]; mouse, in vivo", "value": "−6.6 (31) %"}, {"measurement": "Absolute IC40", "setting": "[6]; example 2", "value": "18 nM and 17.7 nM"}]}
